Measurements as given in patent US20230271924A1 (published 2023).

melting point [°C] | Compound
58 to 59 | CCCCCCCCCCCCCC(=O)Oc1cccc2[nH]cc(CCN(C)C)c12
69 to 70 | CCCCCCCC(=O)Oc1cccc2[nH]cc(CCN(C)C)c12
